The assay deals with T1, HmuY^Pe (Porphyromonas endodontalis, UniProt C3JC46).
T1 construct: gene POREN0001_0444
The experiment in a line: biochemical.

The structures appear in SMILES notation.

T1 sequence (C3JC46 entry or part of it): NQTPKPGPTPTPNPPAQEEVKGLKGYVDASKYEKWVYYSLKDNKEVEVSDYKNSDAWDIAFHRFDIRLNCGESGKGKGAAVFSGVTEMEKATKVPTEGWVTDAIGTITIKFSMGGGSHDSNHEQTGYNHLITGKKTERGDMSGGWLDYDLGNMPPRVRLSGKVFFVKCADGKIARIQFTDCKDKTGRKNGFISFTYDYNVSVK

Regarding `C=CC1=C(C)C2=Cc3c(C=C)c(C)c4[n]3[Fe][n]3c(c(C)c(CCC(=O)O)c3=CC3=NC(=C4)C(C)=C3CCC(=O)O)=CC1=N2` [Fe(II)heme], the Kd amounted to 41 nM.

The term Kd denotes the concentration at which binding is half-saturated. Low values mean a tighter complex, high ones a looser complex.

The record behind these values is article PMC11208336 (Frontiers in Cellular and Infection Microbiology, 2024).
